Test results from patent US20140135270A1, “MACROCYCLIC COMPOUNDS FOR INHIBITION OF INHIBITORS OF APOPTOSIS” (Ensemble Therapeutics Corp., priority 2012, published 2014).

Assays:
His-BIR3 (241-356, XIAP) = target: T1, His-BIR3 (241-356, XIAP) (Homo sapiens, UniProt P98170); assay: XIAP-BIR3/SMAC Homogeneous Time Resolved Fluorescence (HTRF) Assay; type: binding; settings: fluorescein labeled SMAC peptide
T1 construct: additions of His-BIR3 (241-356, XIAP), fluorescein labeled SMAC peptide

[1] = target: T2, His-BIR2-3 (125-356, C202A/C213G, XIAP) (Homo sapiens, UniProt P98170, C202A/C213G); assay: XIAP-BIR2-3 Dimeric SMAC Peptide Homogeneous Time Resolved Fluorescence (HTRF) Assay; type: binding; settings: fluorescein labeled dimeric SMAC peptide
T2 construct: additions of His-BIR2-3 (125-356, C202A/C213G, XIAP), fluorescein labeled dimeric SMAC peptide
T2 sequence (P98170 125-356 C202A/C213G): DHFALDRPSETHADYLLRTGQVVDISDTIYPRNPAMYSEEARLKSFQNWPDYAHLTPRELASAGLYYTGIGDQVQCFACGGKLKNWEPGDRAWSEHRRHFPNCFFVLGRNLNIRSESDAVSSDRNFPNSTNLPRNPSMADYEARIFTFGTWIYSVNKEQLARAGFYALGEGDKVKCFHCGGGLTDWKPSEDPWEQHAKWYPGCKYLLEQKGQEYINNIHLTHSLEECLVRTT

T1 sequence (P98170 241-356): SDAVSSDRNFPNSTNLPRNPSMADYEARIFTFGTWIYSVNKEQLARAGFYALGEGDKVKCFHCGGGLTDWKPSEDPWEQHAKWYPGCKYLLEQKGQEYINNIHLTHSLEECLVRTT

SMILES | IC50 (His-BIR3 (241-356, XIAP)) [nM] | IC50 [1] [nM]
CN[C@@H](C)C(=O)N[C@H](C(=O)N[C@H]1C/C=C/CC[C@@H](C(=O)O)NC(=O)[C@H](Cc2ccc3ccccc3c2)NC(=O)[C@@H]2CN(CCN2C(=O)[C@@H](NC(=O)[C@H](C)NC)C(C)(C)C)C(=O)CNC(=O)CC[C@@H](C(=O)O)NC(=O)[C@H](Cc2ccc3ccccc3c2)NC1=O)C(C)(C)C [Example 77] | 206 | 12.1
CN[C@@H](C)C(=O)N[C@H](C(=O)N1C[C@@H]2C[C@H]1C(=O)N[C@@H](Cc1ccc3ccccc3c1)C(=O)N[C@H](C(=O)O)Cc1ccc(cc1)C(=O)N[C@H]1C[C@@H](C(=O)N[C@@H](Cc3ccc4ccccc4c3)C(=O)N[C@H](C(=O)O)Cc3ccc(cc3)OC/C=C/CO2)N(C(=O)[C@@H](NC(=O)[C@H](C)NC)C(C)(C)C)C1)C(C)C [Example 68] | 15.5 | 2.7
CN[C@@H](C)C(=O)N[C@H](C(=O)N1C[C@@H]2C[C@H]1C(=O)N[C@@H](Cc1ccc3ccccc3c1)C(=O)N[C@H](C(=O)O)Cc1ccc(cc1)OC/C=C/CO[C@H]1C[C@@H](C(=O)N[C@@H](Cc3c[nH]c4ccccc34)C(=O)N[C@H](C(=O)O)Cc3ccc(cc3)C(=O)N2)N(C(=O)[C@@H](NC(=O)[C@H](C)NC)C(C)(C)C)C1)C(C)(C)C [Example 46] | 24.2 | 5.3
CN[C@@H](C)C(=O)N[C@@H](Cc1c[nH]cn1)C(=O)N1C[C@@H]2C[C@H]1C(=O)N[C@@H](Cc1ccc3ccccc3c1)C(=O)N[C@H](C(=O)O)CCC(=O)N[C@H]1C[C@@H](C(=O)N[C@@H](Cc3ccc4ccccc4c3)C(=O)N[C@H](C(=O)O)Cc3ccc(cc3)OC/C=C/CO2)N(C(=O)[C@@H](NC(=O)[C@H](C)NC)C(C)(C)C)C1 [Example 59] | 131 | 24.3
CN[C@@H](C)C(=O)N[C@H](C(=O)N1C[C@@H]2C[C@H]1C(=O)N[C@@H](Cc1ccc3ccccc3c1)C(=O)N[C@H](C(=O)NS(=O)(=O)C1CC1)Cc1ccc(cc1)OCc1cn(nn1)[C@H]1C[C@@H](C(=O)N[C@@H](Cc3ccc4ccccc4c3)C(=O)N[C@H](C(=O)O)Cc3ccc(cc3)OC/C=C/CO2)N(C(=O)[C@@H](NC(=O)[C@H](C)NC)C(C)(C)C)C1)C1CCOCC1 [Example 109] | 44.3 | 4.4
CN[C@@H](C)C(=O)N[C@H](C(=O)N1C[C@@H]2C[C@H]1C(=O)N[C@@H](Cc1ccc3ccccc3c1)C(=O)N[C@H](C(=O)O)Cc1ccc(cc1)OC/C=C/CO[C@H]1C[C@@H](C(=O)N[C@@H](c3ccccc3)C(=O)N[C@H](C(=O)O)Cc3ccc(cc3)C(=O)N2)N(C(=O)[C@@H](NC(=O)[C@H](C)NC)C(C)(C)C)C1)C(C)(C)C [Example 53] | 47.4 | 2.5
CN[C@@H](C)C(=O)N[C@H](C(=O)N1C[C@@H]2C[C@H]1C(=O)N[C@@H](Cc1ccc3ccccc3c1)C(=O)N[C@H](C(=O)O)Cc1ccc(cc1)C(=O)N[C@H]1C[C@@H](C(=O)N[C@@H](Cc3ccc4ccccc4c3)C(=O)N[C@H](C(=O)O)Cc3ccc(cc3)OC/C=C/CO2)N(C(=O)[C@@H](NC(=O)[C@H](C)NC)C(C)(C)C)C1)C1CCCCC1 [Example 71] | 27.9 | 3.7
CC[C@H](NC(=O)[C@H](C)NC)C(=O)N1C[C@@H]2C[C@H]1C(=O)N[C@@H](c1ccccc1)C(=O)N[C@H](C(=O)O)Cc1ccc(cc1)C(=O)N[C@H]1C[C@@H](C(=O)N[C@@H](Cc3ccc4ccccc4c3)C(=O)N[C@H](C(=O)O)Cc3ccc(cc3)OC/C=C/CO2)N(C(=O)[C@@H](NC(=O)[C@H](C)NC)C(C)(C)C)C1 [Example 54] | 60.3 | –
CN[C@@H](C)C(=O)N[C@H](C(=O)N1C[C@@H]2C[C@H]1C(=O)N[C@@H](Cc1ccc3ccccc3c1)C(=O)N[C@H](C(=O)O)Cc1ccc(cc1)CCCC[C@H]1C[C@@H](C(=O)N[C@@H](Cc3ccc4ccccc4c3)C(=O)N[C@H](C(=O)NS(=O)(=O)C3CC3)Cc3ccc(cc3)OCc3cn2nn3)N(C(=O)[C@@H](NC(=O)[C@H](C)NC)C(C)(C)C)C1)C(C)(C)C [Example 119] | 2.8 | 3.4
CN[C@@H](C)C(=O)N[C@H](C(=O)N[C@H]1C/C=C/CC[C@@H](C(=O)O)NC(=O)[C@H](Cc2ccc3ccccc3c2)NC(=O)[C@@H]2CN(CCNC(=O)CC[C@@H](C(=O)O)NC(=O)[C@H](Cc3ccc4ccccc4c3)NC1=O)CCN2C(=O)[C@@H](NC(=O)[C@H](C)NC)C(C)(C)C)C(C)(C)C [Example 80] | 373 | 6.8
CN[C@@H](C)C(=O)N[C@H](C(=O)N1CC[C@H]2OC/C=C/CC[C@@H](C(=O)O)NC(=O)[C@H](Cc3ccc4ccccc4c3)NC(=O)[C@@H]3[C@@H](CCN3C(=O)[C@@H](NC(=O)[C@H](C)NC)C(C)(C)C)OCc3cn(nn3)[C@H](C(=O)O)CCNC(=O)[C@H](Cc3ccc4ccccc4c3)NC(=O)[C@H]21)C(C)(C)C [Example 15] | 38.9 | 4.1
CN[C@@H](C)C(=O)N[C@@H](CCC(=O)O)C(=O)N1C[C@@H]2C[C@H]1C(=O)N[C@@H](Cc1ccc3ccccc3c1)C(=O)N[C@H](C(=O)O)Cc1ccc(cc1)C(=O)N[C@H]1C[C@@H](C(=O)N[C@@H](Cc3ccc4ccccc4c3)C(=O)N[C@H](C(=O)O)Cc3ccc(cc3)OC/C=C/CO2)N(C(=O)[C@@H](NC(=O)[C@H](C)NC)C(C)(C)C)C1 [Example 63] | 17.9 | 2.7
CN[C@@H](C)C(=O)N[C@H](C(=O)N1C[C@@H]2C[C@H]1C(=O)N[C@@H](Cc1ccc3ccccc3c1)C(=O)N[C@H](C(=O)O)Cc1ccc(cc1)C(=O)N[C@H]1C[C@@H](C(=O)N[C@@H](Cc3ccc4ccccc4c3)C(=O)N[C@H](C(=O)O)Cc3ccc(cc3)OC/C=C/CO2)N(C(=O)[C@@H](NC(=O)[C@H](C)NC)C(C)(C)C)C1)C1CCNCC1 [Example 67] | 20 | –
CC[C@H](NC(=O)[C@H](C)NC)C(=O)N1C[C@@H]2C[C@H]1C(=O)N[C@@H](c1ccccc1)C(=O)N[C@H](C(=O)O)Cc1ccc(cc1)C(=O)N[C@H]1C[C@@H](C(=O)N[C@@H](Cc3ccc4ccccc4c3)C(=O)N[C@H](C(=O)O)Cc3ccc(cc3)OC/C=C/CO2)N(C(=O)[C@@H](NC(=O)[C@H](C)NC)C(C)(C)C)C1 [Example 52] | 77.8 | –

More lines, in order of falling IC50 (His-BIR3 (241-356, XIAP)), values ahead:

IC50 (His-BIR3 (241-356, XIAP)) [nM] | IC50 [1] [nM] | SMILES
14.3 | 1.9 | CN[C@@H](C)C(=O)N[C@H](C(=O)N1C[C@@H]2C[C@H]1C(=O)N[C@@H](Cc1ccc3ccccc3c1)C(=O)N[C@H](C(=O)O)Cc1ccc(cc1)C(=O)N[C@H]1C[C@@H](C(=O)N[C@@H](Cc3ccc4ccccc4c3)C(=O)N[C@H](C(=O)O)Cc3ccc(cc3)OC/C=C/CO2)N(C(=O)[C@@H](NC(=O)[C@H](C)NC)C(C)(C)C)C1)C(C)O (stereo partly shown) [Example 65]
9.7 | 1.7 | CN[C@@H](C)C(=O)N[C@H](C(=O)N1C[C@@H]2C[C@H]1C(=O)N[C@@H](Cc1ccc3ccccc3c1)C(=O)N[C@H](C(=O)O)Cc1ccc(cc1)C(=O)N[C@H]1C[C@@H](C(=O)N[C@@H](Cc3ccc4ccccc4c3)C(=O)N[C@H](C(=O)O)Cc3ccc(cc3)OC/C=C/CO2)N(C(=O)[C@@H](NC(=O)[C@H](C)NC)C(C)(C)C)C1)C(C)C [Example 75]
7.5 | 1.1 | CNC(C)C(=O)NC(C(=O)N1CC2CC1C(=O)NC(Cc1ccc3ccccc3c1)C(=O)NC(C(=O)O)Cc1ccc(cc1)OCC=CCOC1CC(C(=O)NC(Cc3ccc4ccccc4c3)C(=O)NC(C(=O)O)Cc3ccc(cc3)CC(=O)N2)N(C(=O)C(NC(=O)C(C)NC)C(C)(C)C)C1)C(C)(C)C (stereo not shown) [Example 30]
7.1 | – | CN[C@@H](C)C(=O)N[C@H](C(=O)N1C[C@@H]2C[C@H]1C(=O)N[C@@H](Cc1ccc3ccccc3c1)C(=O)N[C@H](C(=O)O)Cc1ccc(cc1)C(=O)N[C@H]1C[C@@H](C(=O)N[C@@H](Cc3ccc4ccccc4c3)C(=O)N[C@H](C(=O)O)Cc3ccc(cc3)OC/C=C/CO2)N(C(=O)[C@@H](NC(=O)[C@H](C)NC)C(C)(C)C)C1)C1CCNCC1 [Example 74]
6.2 | 3.5 | CN[C@@H](C)C(=O)N[C@H](C(=O)N1CC[C@H]2OCc3cn(nn3)CC[C@@H](C(=O)OC)NC(=O)[C@H](Cc3ccc4ccccc4c3)NC(=O)[C@@H]3[C@@H](CCN3C(=O)[C@@H](NC(=O)[C@H](C)NC)C(C)(C)C)OC/C=C/CC[C@@H](C(=O)O)NC(=O)[C@H](Cc3ccc4ccccc4c3)NC(=O)[C@H]21)C(C)(C)C [Example 16]
5.9 | 3 | CN[C@@H](C)C(=O)N[C@H](C(=O)N1C[C@H]2CCCCOc3ccc(cc3)C[C@@H](C(=O)NS(=O)(=O)C3CC3)NC(=O)[C@H](Cc3ccc4ccccc4c3)NC(=O)[C@@H]3C[C@H](CCCCOc4ccc(cc4)C[C@@H](C(=O)O)NC(=O)[C@H](Cc4ccc5ccccc5c4)NC(=O)[C@@H]1C2)CN3C(=O)[C@@H](NC(=O)[C@H](C)NC)C(C)(C)C)C(C)(C)C [Example 89]
5.2 | 1.3 | CN[C@@H](C)C(=O)N[C@H](C(=O)N1C[C@@H]2C[C@H]1C(=O)N[C@@H](Cc1ccc3ccccc3c1)C(=O)N[C@H](C(=O)O)Cc1ccc(cc1)C(=O)N[C@H]1C[C@@H](C(=O)N[C@@H](Cc3ccc4ccccc4c3)C(=O)N[C@H](C(=O)O)Cc3ccc(cc3)OC/C=C/CO2)N(C(=O)[C@@H](NC(=O)[C@H](C)NC)C(C)(C)C)C1)C1CCOCC1 [Example 66]
3.5 | 2.7 | CNC(C)C(=O)NC(C(=O)N1CC2CCCCOc3ccc(cc3)CC(C(=O)NS(=O)(=O)CCCNC(C)=O)NC(=O)C(Cc3ccc4ccccc4c3)NC(=O)C3CC(CN3C(=O)C(NC(=O)C(C)NC)C(C)(C)C)n3cc(nn3)COc3ccc(cc3)CC(C(=O)O)NC(=O)C(Cc3ccc4ccccc4c3)NC(=O)C1C2)C(C)(C)C (stereo not shown) [Example 27]
